PubChem BioAssay (NCI)
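A five-concentration, 48-hour dose response in 96-well plates underlies each endpoint, interpolated linearly between surrounding concentrations. Abbreviation: GI50, concentration required for 50% inhibition of growth. TGI is the concentration that stops growth completely.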

How the values were obtained:
Experiment in all cases: DTP human tumour cell line panel, 48 h
SN12C renal = test system: SN12C renal
U251 CNS = test system: U251 CNS
COLO 205 colon = test system: COLO 205 colon
IGROV1 ovarian = test system: IGROV1 ovarian
NCI-H226 lung = test system: NCI-H226 lung
SK-MEL-5 melanoma = test system: SK-MEL-5 melanoma
T-47D breast = test system: T-47D breast
OVCAR-5 ovarian = test system: OVCAR-5 ovarian
NCI-H460 lung = test system: NCI-H460 lung
M14 melanoma = test system: M14 melanoma

| Structure (SMILES) | TGI (SN12C renal) [µM] | TGI (U251 CNS) [µM] | TGI (COLO 205 colon) [µM] | TGI (IGROV1 ovarian) [µM] | TGI (NCI-H226 lung) [µM] | TGI (SK-MEL-5 melanoma) [µM] | TGI (T-47D breast) [µM] | TGI (OVCAR-5 ovarian) [µM] | TGI (NCI-H460 lung) [µM] | TGI (M14 melanoma) [µM] | GI50 (SN12C renal) [µM] | GI50 (U251 CNS) [nM] | GI50 (COLO 205 colon) [nM] | GI50 (IGROV1 ovarian) [nM] | GI50 (NCI-H226 lung) [µM] | GI50 (SK-MEL-5 melanoma) [nM] | GI50 (T-47D breast) [nM] | GI50 (OVCAR-5 ovarian) [nM] | GI50 (NCI-H460 lung) [nM] | GI50 (M14 melanoma) [µM] |
| --- | --- | --- | --- | --- | --- | --- | --- | --- | --- | --- | --- | --- | --- | --- | --- | --- | --- | --- | --- | --- |
| O=C1N2CCC[C@H]2CS1(=O)=O | 29.1 | 30 | 28.9 | 34.7 | 72.2 | 33.3 | 32.9 | 93.7 | 88.1 | 31.6 |  |  |  |  |  |  |  |  |  |  |
| CC(c1ccccc1)n1cncc1C(=O)NN1CCN(C)CC1 (configuration not stated) | > 10 | > 10 | > 10 | > 10 | > 10 | > 10 | > 10 | > 10 | > 10 | > 10 |  |  |  |  |  |  |  |  |  |  |
| COc1cc2nc(N3CCC[C@H](NC4=CC(=O)c5ccccc5C4=O)C3)nc(N)c2cc1OC | 3.51 | 3.18 | 3.47 | 4.27 | 55.6 | 3.26 | 3.63 | 4 | 4.01 |  | 1.73 | 1650 | 1910 | 2070 | 16.6 | 1730 | 1900 | 2050 | 1960 |  |
| Cn1c2ccc(Cl)cc2c2ccc3c(c21)C(=O)C=CC3=O | > 10 | > 10 | > 10 | > 10 | > 10 | > 10 | > 10 | > 10 | > 10 | > 10 |  |  |  |  |  |  |  |  |  |  |
| CC(OP(=O)(O)O)C(N)C(=O)O (configuration not stated) | > 100 | > 100 | > 100 | > 100 | > 100 | > 100 | > 100 | > 100 | > 100 | > 100 |  |  |  |  |  |  |  |  |  |  |
| O=c1[nH]cc(N=Cc2cc(Cl)ccc2O)c(=O)[nH]1 | > 100 | 88.2 | 75.7 | 52.6 | 98 | > 100 | 60.7 | > 100 | > 100 | 48.9 |  |  |  |  |  |  |  |  |  |  |
| COc1ccc(OC)c2c(C)ccnc12 | > 100 | > 100 | > 83.3 | > 66.4 | > 93.4 | > 84.4 | > 100 | > 100 | > 100 | 34.3 |  |  |  |  |  |  |  |  |  |  |
| O=C1C=C(N2CCN(c3ncccn3)CC2)C(=O)c2c(O)ccc(O)c21 | > 100 | > 100 | > 100 | > 100 | > 100 | > 100 | > 100 | > 100 | > 100 | > 100 |  |  |  |  |  |  |  |  |  |  |
| Cc1ccc(N=C/C=C(\Nc2ccc(C)cc2)c2ccc3ccccc3c2)cc1 |  | 7.23 | 2.38 | 15.1 | 4.48 | 12 | 23.7 | 6.24 | 13.8 | 8.69 |  |  |  |  |  |  |  |  |  |  |
| Cc1cc(N2CCCCC2)nc2ccc(Cc3ccc4nc(N5CCCCC5)cc(C)c4c3)cc12 | > 100 | > 100 | > 100 | > 100 | > 100 | > 100 | > 100 | > 100 | > 100 | > 100 |  |  |  |  |  |  |  |  |  |  |
| O=C(O)Cn1c2c(c3c1-c1ccccc1C3=O)C(=O)CCC2 | > 100 | > 100 | > 100 | > 100 | > 100 | > 100 | > 100 | > 100 | > 100 | > 100 | > 100 | > 100000 | > 100000 | > 100000 | > 100 | > 100000 | > 100000 | > 100000 | > 100000 | > 100 |
| CCCC1=C(OC)C(=O)c2c(C)cc(Cl)nc2C1=O | 9.62 | 18.6 | 22.1 | 30.3 | 33.2 | 16.7 | 9.83 | 29.1 | 26.6 | 18.9 |  |  |  |  |  |  |  |  |  |  |
| N/N=C(/N)SCCCCCCCCCCS/C(N)=N/N | > 100 | 51.4 | 27.7 | 69.9 | 83.1 | 49 | 35.4 | > 100 | 32.7 | > 100 |  |  |  |  |  |  |  |  |  |  |
| COc1cccc(NC(=O)CC(=O)n2nc(-c3ccccc3)c(N=Nc3ccc(Cl)cc3)c2-c2ccccc2)c1 | > 100 | 77.9 | 61.6 | > 96.4 | 73.8 | 53.8 | > 100 | > 100 | > 92.5 | 42.3 |  |  |  |  |  |  |  |  |  |  |
| Cn1c2ccccc2n2c3ncccc3c(=O)cc12 | > 100 | > 100 | > 100 | > 100 | > 100 | > 100 | > 100 | > 100 | > 100 | > 100 |  |  |  |  |  |  |  |  |  |  |
| CC/C=C/c1cc2c(cc1O)CCC1C2CC[C@@]2(C)C1CC[C@@H]2O (some centres not stated) | 18.7 | 15.7 | 27.5 | 17.5 | 10.6 | 11.3 | 15 | 26.8 | 17.3 | 12.2 | 5.13 |  |  |  |  |  |  |  |  |  |
| COC(=O)CCC(=O)NC1=C(Nc2ccccc2)C(=O)c2ccccc2C1=O | 28.9 | 24.2 | 35.3 | 26 | 28.6 | 3.3 | 32.8 | 19.7 | 31.9 | 7.27 |  |  |  |  |  |  |  |  |  |  |
| Cc1c(OCc2cccc3ccccc23)ccc2c(=O)cc(SCCN3CCOCC3)oc12 | > 100 | > 100 | > 100 | > 100 | > 100 | > 100 | > 100 | > 100 | > 100 | > 100 |  |  |  |  |  |  |  |  |  |  |
| CCOC(=O)c1cc2c3c(c(C(C)=O)c(OC)c2[nH]1)N(C(=O)CC)CC3 | 42.9 | 47.6 | 41.8 | 30 | 34.2 | 24.5 | 45.4 | 89.5 | 45.3 | 50.5 |  |  |  |  |  |  |  |  |  |  |
| Oc1c(Cl)cc2cc1-c1cc(cc(Cl)c1O)CCc1c(cc(Cl)c(O)c1Cl)-c1cc(Cl)c(c(Cl)c1O)/C=C\2 |  | 45.6 | 16.4 | 18.3 | 22.5 | 14.9 | 19.2 | 19.5 | 13.1 | 15.6 |  |  |  |  |  |  |  |  |  |  |
